The values below come from patent US11098043B2, “Certain imidazopyridines as cyclic AMP response element binding (CREB) binding protein (CBP) inhibitors and uses thereof” (University of Massachusetts, priority 2017, dated 2021).

pIC50: −log10 of the molar value. Bounds are passed on as bounds.

In one test the target is T1, BRD4(1) bromodomain (Homo sapiens, UniProt O60885).
T1 construct: final concentrations of His-BRD4(1) at 20 nM
Nature of the test: AlphaScreen in vitro binding assay with BRD4. To be noted: isolated BRD4 bromodomain, means of at least two determinations. On the procedure: (§1) To determine the binding selectivity of compounds provided, AlphaScreen in vitro binding assays were performed with either CBP or BRD4.
Assays were performed with minor modifications from the manufacturer's protocol (Perkin Elmer, USA). All reagents were diluted in AlphaScreen™ buffer (50 mM HEPES, 150 mM NaCl, 0.01% v/v Tween-20, 0.1% w/v BSA, pH 7.4). After addition of Alpha beads to master solutions, all subsequent steps were performed under low light conditions. […] Plates were spun down at 1000 rpm. A 10-point 1: √{square root over (sqrt(10))} serial dilution of compounds in DMSO was prepared at 200× the final concentration. 100 nL of compound from these stock plates were added by pin transfer using a Janus Workstation (PerkinElmer). A 2× solution of streptavidin-coated donor beads with a final concentration of 10 μg/ml was added in a 10 μL volume. The plates were spun down again at 1000 rpm and sealed with foil to prevent light exposure and evaporation. The plates were then incubated at room temperature for 1 hour and read on an Envision 2104 (PerkinElmer) using the manufacturer's protocol. IC50 values were calculated using a 4-parameter logistic curve in Prism 6 (GraphPad Software, USA) after normalization to DMSO-treated negative control wells.

For another test, the target named is T2, CBP bromodomain (Homo sapiens, UniProt Q92793).
T2 construct: docked complex of Compound 21 with CBP bromodomain
Nature of the test: AlphaScreen in vitro binding assay with CBP. To be noted: for pIC50: AlphaScreen, isolated CBP bromodomain, means of at least two determinations; for Selectivity Value [BRD4(1) IC50 (μM)/CBP IC50 (μM)]: ratio BRD4(1) IC50 / CBP IC50. How it is done: as §1
Assays were performed with minor modifications from the manufacturer's protocol (Perkin Elmer, USA). All reagents were diluted in AlphaScreen™ buffer (50 mM HEPES, 150 mM NaCl, 0.01% v/v Tween-20, 0.1% w/v BSA, pH 7.4). After addition of Alpha beads to master solutions, all subsequent steps were performed under low light conditions. A 2× solution of components with final concentrations of His-BRD4(1) at 20 nM or His-CBP at 50 nM, Ni-coated Acceptor bead at 10 μg/ml, and biotinylated-JQ1 at 10 nM or biotinylated peptide at 100 nM was added in 10 μL to 384-well plates (AlphaPlate-384, PerkinElmer) using an EL406 liquid handler (Biotek, USA). Plates were spun down at 1000 rpm. A 10-point 1: √{square root over (sqrt(10))} serial dilution of compounds in DMSO was prepared at 200× the final concentration. 100 nL of compound from these stock plates were added by pin transfer using a Janus Workstation (PerkinElmer). A 2× solution of streptavidin-coated donor beads with a final concentration of 10 μg/ml was added in a 10 μL volume. The plates were spun down again at 1000 rpm and sealed with foil to prevent light exposure and evaporation. The plates were then incubated at room temperature for 1 hour and read on an Envision 2104 (PerkinElmer) using the manufacturer's protocol. IC50 values were calculated using a 4-parameter logistic curve in Prism 6 (GraphPad Software, USA) after normalization to DMSO-treated negative control wells.

T2 sequence (Q92793 1085-1192 limits assumed): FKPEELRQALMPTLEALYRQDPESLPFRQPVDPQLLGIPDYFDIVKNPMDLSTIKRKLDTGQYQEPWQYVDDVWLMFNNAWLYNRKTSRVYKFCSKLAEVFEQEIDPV

`COc1ccc(Cc2nc3cc(-c4c(C)noc4C)ccn3c2NC2CCCCC2)cc1` [Compound 26] had a negative-log IC50 (pIC50) at BRD4(1) bromodomain of 4.95. In addition, at CBP bromodomain, the negative logarithm of the IC50 (pIC50) was 5.22 and the “Selectivity Value [BRD4(1) IC50 (μM)/CBP IC50 (μM)]” value (from here on “Selectivity Value”) is reported as 2.

Regarding `COc1ccc(CCCc2nc3cc(-c4c(C)noc4C)ccn3c2NC2CCCCC2)cc1` [Compound 27, N-cyclohexyl-7-(3,5-dimethylisoxazol-4-yl)-2-(3-(4-methoxyphenyl)propyl)imidazo[1,2-a]pyridin-3-amine], on BRD4(1) bromodomain, the negative-log IC50 (pIC50) is 4.91. For the same compound, at CBP bromodomain, the negative logarithm of the IC50 (pIC50) was 5.31 and the “Selectivity Value” value was 3.

Turning to `CCOc1ccc(CCc2nc3cc(-c4c(C)noc4C)ccn3c2NC(C)(C)CC(C)(C)C)cc1` [Compound 29, 7-(3,5-dimethylisoxazol-4-yl)-2-(4-ethoxyphenethyl)-N-(2,4,4-trimethylpentan-2-yl)imidazo[1,2-a]pyridin-3-amine], the pIC50 on BRD4(1) bromodomain was below 4.30. Moreover, on CBP bromodomain, the pIC50 is 4.41 and the “Selectivity Value” value is above 1.

On to `COc1ccc(CCc2nc3cc(-c4c(C)noc4C)ccn3c2NC2CCCCC2)cc1OC` [Compound 33], for which the pIC50 at BRD4(1) bromodomain is 5.21. Also, at CBP bromodomain, the pIC50 was 6.12 and the “Selectivity Value” value is recorded as 8.

On to `COc1ccc(CCc2nc3cc(-c4c(C)noc4C)ccn3c2NC(C)C)cc1OC` [Compound 34], for which the pIC50 at BRD4(1) bromodomain is 4.65. In addition, at CBP bromodomain, the pIC50 was 5.45 and the “Selectivity Value” value turned out to be 6.

As to `Cc1noc(C)c1-c1ccn2c(NC3CCCCC3)c(CCc3ccc(OC(C)C)cc3)nc2c1` [Compound 36], at BRD4(1) bromodomain, the pIC50 was 5.09. Moreover, on CBP bromodomain, the negative logarithm of the IC50 (pIC50) was 6.13 and the “Selectivity Value” value is 11.

In the case of `COc1ccc(CCc2nc3cc(-c4c(C)noc4C)ccn3c2N[C@H](C)c2ccccc2)cc1` [Compound 37], the pIC50 at BRD4(1) bromodomain is 4.96. Moreover, on CBP bromodomain, the pIC50 is 5.80 and the “Selectivity Value” value amounted to 7.
